Assays:
primary cortical neurons [1] = test: Immunocytochemistry colocalization of internalized Aβ with vesicular markers (Mander's overlap coefficient); type: cell-based, mouse; details: Aβ 500 nM, 4 h, mean ± S.D., n = 6, N = 3; for Mander's overlap coefficient, R, with EEA1-positive vesicles: Aβ stained with 82E1
primary cortical neurons [2] = test: SDS-PAGE and immunoblotting of marker proteins in membrane and cytosolic fractions; type: cell-based, mouse; details: Aβ 500 nM, 4 h, normalized to Actin/GAPDH, fold change wrt control cells, mean ± S.E.M., n = 6, N = 3; for CTSD mature* level / CTSD pro* level / EEA1* level / RAB5* level / RAB7* level / RAB11* level / SQSTM1/p62* level / UBQ* level: cytosolic fraction; for ATG3 level / ATG5 level / ATG12–ATG5 level / ATG14 level / LAMP2 level / LC3-I level / LC3-II level / ULK1/Atg1 level: membrane fraction
Method: [Worded in the source for another cell line; used here, by the source, with some conditions changed.] (§1) SH-SY5Y cells seeded on D1, were treated with Aβ variants (1 μM) on D3 in DMEM/F-12 media without serum and antibiotics. Control treatment included treatment with equal volume of 10 mM NaOH solution used for preparing the Aβ stock solutions, in respective cell culture medium. SH-SY5Y cells, after 16 h of transient expression of the reporter constructs, were treated with different Aβ variants, autophagy modulator substrates and respective controls in DMEM/F-12, FCS^− PS^− media for the mentioned time points. After treatment, cells were washed twice with PBS and with 0.025% trypsin-EDTA in PBS to get rid of cell bound Aβ, followed by subsequent washings with PBS again. Cells were either collected by scraping using a cell-scraper or fixed with 4% PFA-PBS for 15 min at RT, for further immunocytochemistry experiments. Collected treatment media was centrifuged at 1000 g for 5 min, pellet discarded and supernatant frozen at −20°C until further usage.
(§2) Cells were collected by scraping and mechanically homogenized in hypotonic D buffer (10 mM Tris-HCl, pH 7.4, 10 mM NaCl, 0.1 mM EGTA, 25 mM glycerol 2-phosphate, 1 mM DTT) containing protease and phosphatase inhibitors by repeated suspension through a 23 G × 1” needle. Post-nuclear supernatant (PNS) was collected by centrifugation of the mechanically homogenized cellular material at 2,000 g for 5 min. The pellet was the nuclear material. Nuclear pellet was then resuspended in Buffer C (5 mM HEPES, 1.5 mM MgCl2, 0.2 mM EDTA, 0.5 mM DTT, 0.05% NP40 [Sigma Aldrich, 18876], 30% glycerol, pH 7.9) containing protease and phosphatase inhibitors, ultrasonicated at minimum voltage, three currents in four cycles, followed by repetitive cooling of samples on ice. The nuclear fraction was the supernatant collected after centrifugation at 16,100 g for 15 min. The PNS collected from the first step was centrifuged at 16,100 g for 60 min, and supernatant was used as the crude cytosolic fraction. The pellet contained the membrane materials, which were re-homogenized in hypotonic D buffer and again centrifuged at 16,100 g for 60 min. The supernatant was discarded, pellet was resuspended in STEN-lysis buffer (20 mM Tris-HCl, pH 7.5, 150 mM NaCl, 1 mM EDTA, 1 mM EGTA, 1% Triton X-100, 2.5 mM sodium pyrophosphate [Sigma Aldrich, P1835], 1 mM β-glycerophosphate [Sigma Aldrich, G9422]) containing protease and phosphatase inhibitors, and the membrane fraction was the supernatant collected after centrifugation at 16,100 g for 15 min. The crude cytosolic fraction was then further fractionated at 100,000 g for 70 min at 4°C under vacuum. The resultant supernatant was the soluble cytosolic fraction. The pellet was resuspended in STEN lysis buffer and centrifuged at 16,100 g for 15 min. The resultant supernanant represented the insoluble cytosolic fraction.
(§3) For different cellular fractions prepared as described earlier, the protein content was estimated using the standard Pierce™ BCA protein assay kit (ThermoFisher Scientific, 23225). For direct comparison between the samples, equal amount of protein was loaded. Samples were dissolved in Laemmli buffer and were boiled at 95°C for 5 min. They were loaded on a precast 4–12% NuPage® Bis-Tris gels (Life technologies, NP033–5/6, WG140–2/3). Gels and prestained protein molecular weight markers were purchased from Life technologies. The separated proteins were electro-transferred onto a 0.2-μm nitrocellulose (NT) membrane (Amersham, 1060001) for 1 h 45 min. After blotting, the NT membranes were boiled in PBS for 10 min. Ponceau staining was done to monitor protein loading of samples. The blots were then incubated in 5% skim milk in TBS-T (TBS [50 mM Tris-HCl, pH 7.5, 150 mM NaCl] containing 0.1% Tween 20 [Sigma Aldrich, P1379]) for 1 h at RT. Blots were incubated overnight at 4°C in the primary antibody solution (respective dilutions in TBS-T, Table 1). Blots were washed and incubated with appropriate secondary antibodies conjugated either with HRP or fluorescent dyes for 1 h. […]

SH-SY5Y cells = test: Quantitative western immunoblotting of autophagy and endo-lysosomal proteins; type: cell-based, human; details: Aβ 1 µM, 24 h, n = 6, N = 3
Method: as §1, §2, §3

Substance	Mander's overlap coefficient, R, with EEA1-positive vesicles (primary cortical neurons [1])	Mander's overlap coefficient, R, with CTSD (primary cortical neurons [1])	Mander's overlap coefficient, R, with LAMP2 (primary cortical neurons [1])	Mander's overlap coefficient, R, with LC3-positive vesicles (primary cortical neurons [1])	Mander's overlap coefficient, R, with RAB7-positive late endosomes (primary cortical neurons [1])	CTSD mature* level (primary cortical neurons [2]) [fold change]	CTSD pro* level (primary cortical neurons [2]) [fold change]	EEA1* level (primary cortical neurons [2]) [fold change]	RAB5* level (primary cortical neurons [2]) [fold change]	RAB7* level (primary cortical neurons [2]) [fold change]	RAB11* level (primary cortical neurons [2]) [fold change]	SQSTM1/p62* level (primary cortical neurons [2]) [fold change]	UBQ* level (primary cortical neurons [2]) [fold change]	ATG3 level (primary cortical neurons [2]) [fold change]	ATG5 level (primary cortical neurons [2]) [fold change]	ATG12–ATG5 level (primary cortical neurons [2]) [fold change]	ATG14 level (primary cortical neurons [2]) [fold change]	LAMP2 level (primary cortical neurons [2]) [fold change]	LC3-I level (primary cortical neurons [2]) [fold change]	LC3-II level (primary cortical neurons [2]) [fold change]	also measured
amyloid-β phosphorylated at serine residue 26 [p-Ser26Aβ]	0.51 ± 0.14	0.65 ± 0.10	0.65 ± 0.13	0.52 ± 0.09	0.62 ± 0.15	1.46 ± 0.11	1.19 ± 0.05	1.28 ± 0.12	1.47 ± 0.11	1.25 ± 0.12	1.89 ± 0.06	1.41 ± 0.08	2.11 ± 0.4	1.38 ± 0.32	1.31 ± 0.11	1.43 ± 0.23	1.58 ± 0.17	1.23 ± 0.07	1.45 ± 0.12	1.42 ± 0.2	ULK1/Atg1 level (primary cortical neurons [2]): 1.74 ± 0.36 fold change; Intracellular levels of the ATP6V0A1 subunit of the V-ATPase (SH-SY5Y cells; PNS fraction): significantly increased levels; Levels of nuclear transcription factor EB (TFEB) (SH-SY5Y cells; nuclear material): significantly increased levels; ATG1-ULK1 kinase complex level (SH-SY5Y cells; western immunoblot vs control): increased; CTSD level (SH-SY5Y cells; western immunoblot vs control): selectively increased; EEA1 level (SH-SY5Y cells; western immunoblot vs control): no significant effect; LAMP2 level (SH-SY5Y cells; western immunoblot vs control): selectively increased; RAB5 level (SH-SY5Y cells; western immunoblot vs control): increased; RAB7 level (SH-SY5Y cells; western immunoblot vs control): strongest effects; RAB11 level (SH-SY5Y cells; western immunoblot vs control): strongest effects
amyloid-β phosphorylated at serine residue 8 [p-Ser8Aβ]	0.58 ± 0.18	0.30 ± 0.06	0.33 ± 0.08	0.64 ± 0.21	0.33 ± 0.05	0.94 ± 0.09	0.99 ± 0.04	1.65 ± 0.21	1.26 ± 0.09	0.95 ± 0.17	1.75 ± 0.29	1.49 ± 0.06	1.62 ± 0.14	1.23 ± 0.38	1.18 ± 0.1	1.18 ± 0.2	1.17 ± 0.05	0.97 ± 0.06	1.43 ± 0.15	1.95 ± 0.14	ULK1/Atg1 level (primary cortical neurons [2]): 0.88 ± 0.22 fold change; ATG1-ULK1 kinase complex level (SH-SY5Y cells; western immunoblot vs control): not; EEA1 level (SH-SY5Y cells; western immunoblot vs control): increased; RAB5 level (SH-SY5Y cells; western immunoblot vs control): increased; Levels of LC3-I and II (SH-SY5Y cells; western immunoblot, compared to control cells): significantly increased levels
non-phosphorylated amyloid-β [npAβ, reference compound]	0.43 ± 0.15	0.47 ± 0.09	0.45 ± 0.12	0.47 ± 0.09	0.44 ± 0.10	1.08 ± 0.07	0.99 ± 0.06	1.22 ± 0.15	1.08 ± 0.07	1.1 ± 0.08	1.47 ± 0.22	1.19 ± 0.02	1.36 ± 0.19	1.23 ± 0.21	1.08 ± 0.11	1.04 ± 0.09	1.27 ± 0.08	1.16 ± 0.08	1.37 ± 0.06	1.48 ± 0.06	ULK1/Atg1 level (primary cortical neurons [2]): 1.37 ± 0.35 fold change; ATG1-ULK1 kinase complex level (SH-SY5Y cells; western immunoblot vs control): increased; ATG3 level (SH-SY5Y cells; western immunoblot vs control): not; EEA1 level (SH-SY5Y cells; western immunoblot vs control): no significant; RAB5 level (SH-SY5Y cells; western immunoblot vs control): no significant; RAB7 level (SH-SY5Y cells; western immunoblot vs control): no significant; RAB11 level (SH-SY5Y cells; western immunoblot vs control): smallest effect
